Active and inactive are the calls of the source.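 How the source made its calls: active means compounds giving half or more protection of infected cells from virus-caused growth loss, again on retest; inactive means the rest.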
Test system: CEM cells HIV-1 protection, formazan growth assay
Assay: NCI AIDS Antiviral Assay
Conditions: for IC50: measured here: growth of uninfected CEM cells
Summary of the method: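 Human CEM cells, uninfected and HIV-1-infected, received five drug concentrations, and growth was read by soluble formazan assay. Compounds giving at least 50% protection were retested; reproducible 100% protection defined confirmed active.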

Compound	EC50 [µM]	IC50 [µM]	outcome
COC(=O)OC[C@H]1O[C@@H](n2cc(C)c(=O)[nH]c2=O)CC1OC(=O)OC (stereo partly specified)	> 200	> 200	–
COC1(OC)CC2C(=O)CCCC21OC(C)=O (stereo unspecified)	> 1020	22.4	–
CCOP(=O)(OCC)/C(C#N)=C/c1cccs1	77.6	724	–
CC1(C)CC(=O)C2C(C1)OC1CC(C)(C)CC(=O)C1C2c1ccc2c(c1)OCO2 (stereo unspecified)	> 200	155	–
O=c1[nH]c(-c2ccc(-c3nc4cc([N+](=O)[O-])ccc4c(=O)[nH]3)cc2)nc2cc([N+](=O)[O-])ccc12	> 7.94	> 7.94	–
O=C(N=Nc1c(O)[nH]c2ccccc12)c1ccccc1O	> 25.1	15.5	–
CCOC(=O)C(Cc1ccccc1)NC(=O)c1ccc(N=NN(C)C)cc1 (stereo unspecified)	> 51.3	> 51.3	–
O=C(Nc1ccc(C2=NCCN2)cc1)c1cccc(NC(=S)Nc2ccc(C3=NCCN3)cc2)c1	33.1	112	–
CN(C)c1cccc2c(S(=O)(=O)NCCCCCCCCCCCCNS(=O)(=O)c3cccc4c(N(C)C)cccc34)cccc12	> 200	–	–
CCO/C=N\c1c(C#N)c(-c2ccc(Cl)cc2)cn1-c1ccc(C)cc1	> 200	25.1	–
O=c1cc2ccc(Cl)cc2n[nH]1	> 85.1	> 85.1	–
CN(C)/C=C/C(=O)c1cccc(C(=O)/C=C/N(C)C)n1	> 19.1	> 19.1	–
O=C(c1ccc2c(c1)OCO2)N1OC2C=CC1CC2 (stereo unspecified)	> 955	513	–
CC1(C)CCCCCCCCCC2CC2CCC(C)(C)C1=O (stereo unspecified)	> 200	> 100	–
CN1CCN(C(=S)N(C)C(=O)c2ccco2)CC1	> 933	> 933	–
CCCCNC1=C(C(=O)OCC)C(=O)CO1	> 794	447	–
COc1csc([C@H]2CCC3[C@@H]4CC=C5C[C@@H](OC(C)=O)CC[C@]5(C)C4CC[C@@]32C)n1 (stereo partly specified)	> 57.5	> 57.5	–
Cc1cc(=O)oc2c(C)c3oc(CBr)c(Br)c3cc12	> 200	2.24	–
Cc1ccc(Nc2ncnc3sc(SCc4ccccc4)nc23)cc1	–	–	inactive
COc1ccc(OP2OCC(C)O2)cc1 (stereo unspecified)	> 1100	46.8	–
Cc1ccc(S(=O)(=O)N2CCCCN(S(=O)(=O)c3ccc(C)cc3)Cc3ccccc3OCCOCCOc3c4cccc3Cc3cccc5c3OCCOCCOc3ccccc3CN(S(=O)(=O)c3ccc(C)cc3)CCCN(S(=O)(=O)c3ccc(C)cc3)Cc3ccccc3OCCOCCOc3c(cccc3C4)Cc3cccc(c3OCCOCCOc3ccccc3C2)C5)cc1	> 100	> 100	–
CSCC1CC(c2ccc(Cl)cc2)=NO1 (stereo unspecified)	> 107	> 107	–

Compound	EC50 [µM]	IC50 [µM]	outcome
O=C1c2ccccc2C(=O)c2nc(-c3ccccc3)c(-c3ccccc3)nc21	–	–	inactive
CCCCCC=C(c1cc(Br)c(OC)c(Br)c1)c1cc(Br)c(OC)c(Br)c1	> 151	> 151	–
O=C1CC2c3c(OCc4ccccc4)cccc3OC2O1 (stereo unspecified)	> 47.9	> 47.9	–
Fc1cccc(F)c1C1SCc2nc3cc(Cl)c(Cl)cc3n21 (stereo unspecified)	120	195	–
CCOC(=O)c1nc2ccccc2nc1Oc1ccc(C#N)cc1	> 200	> 200	–
O=c1[nH]cnc2c1ncn2[C@@H]1C[C@@H]1CO	> 200	> 200	–
CCC(=O)c1c(NOC2OC(COC(C)=O)C(OC(C)=O)C(OC(C)=O)C2OC(C)=O)nc(OC)n(C)c1=O (stereo unspecified)	> 46.8	> 46.8	–
CCN1CCOC(c2ccccc2)C1c1ccccc1 (stereo unspecified)	> 200	129	–
COc1ccc(/C=C2\N=C3N(Cc4ccccc4)C=C(N)N3C2=O)cc1	> 200	> 200	–
CN(c1ccccc1)S(=O)(=O)c1ccc(Cl)cc1	> 200	–	–
COc1cc2c(cc1OC)NCc1ccccc1NCc1cc(OC)c(OC)cc1NCc1ccccc1NC2	> 200	107	–
Cc1ccc2c(c1)[nH]c(=S)n2/C=C1\C(=O)Oc2ccccc2C1=O	> 200	36.3	–
CC(C)C(=O)CC(c1ccc(Cl)cc1)N1N=C(C(C)C)CC1c1ccc(Cl)cc1 (stereo unspecified)	–	–	inactive
O=C(O)CSc1n[nH]c(-c2ccccc2)n1	> 30.9	7.59	–
O=C(CCCCCCCCC(=O)OCCCn1cc(C(=O)NC(=O)OCc2ccccc2)c(=O)[nH]c1=O)OCCCn1cc(C(=O)NC(=O)OCc2ccccc2)c(=O)[nH]c1=O	> 15.8	> 15.8	–
COc1ccc(C2SCC(=O)N2c2ccc(-n3c(-c4ccccc4)nc4ccccc4c3=O)cc2)cc1OC (stereo unspecified)	> 200	> 200	–
CC(C)(C)C1COP(=O)(C(C)(C)C)OC1 (stereo unspecified)	> 537	468	–
C(=C1/NC(c2ccccc2)=Nc2ccccc21)/c1ccccc1	> 6.76	> 6.76	–
CS(=O)(=O)OCC1OC2OC3(CCCCC3)OC2C1OCc1ccccc1 (stereo unspecified)	> 200	105	–
NC(=O)c1ccc[n+](C2=C([O-])c3ccccc3C(=O)/C2=N\S(=O)(=O)c2ccccc2)c1	> 200	11.2	–
COC(=O)c1c(-c2cc(OC)c(OC)c(OC)c2)oc2ccccc2c1=O	> 97.7	1.45	–

— PubChem BioAssay AID179 (DTP/NCI, 2004)
